Experimental data from ChEMBL document CHEMBL1155915, “Anticonvulsant activity of some xanthone derivatives” (Bioorg Med Chem, 2008).
The source made the active and inactive calls. The calls are words filed in the database; no cut-off is given here.

Tests used:
Mus musculus [1] = assay: Neurotoxicity in mouse at 30 mg/kg, ip after 0.5 hrs by rotarod test; assay type: toxicity, organism-based; set-up: dose 30 mg/kg, route intraperitoneal; conditions: in vivo
Mus musculus [2] = assay: Neurotoxicity in mouse at 30 mg/kg, ip after 4 hrs by rotarod test; assay type: toxicity, organism-based; set-up: dose 30 mg/kg, route intraperitoneal; conditions: in vivo
Mus musculus [3] = assay: Neurotoxicity in mouse at 100 mg/kg, ip after 4 hrs by rotarod test; assay type: toxicity, organism-based; set-up: dose 100 mg/kg, route intraperitoneal; conditions: in vivo
Mus musculus [4] = assay: Neurotoxicity in mouse at 300 mg/kg, ip after 4 hrs by rotarod test; assay type: toxicity, organism-based; set-up: dose 300 mg/kg, route intraperitoneal; conditions: in vivo
Rattus norvegicus [5] = assay: Anticonvulsant activity against maximal electroshock-induced seizures in rat at 30 mg/kg, po after 0.25 hrs; assay type: functional, organism-based; set-up: dose 30 mg/kg
Rattus norvegicus [6] = assay: Anticonvulsant activity against maximal electroshock-induced seizures in rat at 30 mg/kg, po after 0.5 hrs; assay type: functional, organism-based; set-up: dose 30 mg/kg
Rattus norvegicus [7] = assay: Anticonvulsant activity against maximal electroshock-induced seizures in rat at 30 mg/kg, po after 1 hr; assay type: functional, organism-based; set-up: dose 30 mg/kg
Rattus norvegicus [8] = assay: Neurotoxicity in rat at 30 mg/kg, po after 0.25 hrs by rotarod test; assay type: toxicity, organism-based; set-up: dose 30 mg/kg, route oral; conditions: in vivo
Rattus norvegicus [9] = assay: Neurotoxicity in rat at 30 mg/kg, po after 0.5 hrs by rotarod test; assay type: toxicity, organism-based; set-up: dose 30 mg/kg, route oral; conditions: in vivo
Rattus norvegicus [10] = assay: Neurotoxicity in rat at 30 mg/kg, po after 1 hr by rotarod test; assay type: toxicity, organism-based; set-up: dose 30 mg/kg, route oral; conditions: in vivo
Rattus norvegicus [11] = assay: Neurotoxicity in rat at 30 mg/kg, po after 2 hrs by rotarod test; assay type: toxicity, organism-based; set-up: dose 30 mg/kg, route oral; conditions: in vivo
Rattus norvegicus [12] = assay: Neurotoxicity in rat at 30 mg/kg, po after 4 hrs by rotarod test; assay type: toxicity, organism-based; set-up: dose 30 mg/kg, route oral; conditions: in vivo
[13] = Neurotoxicity in ip dosed mouse by rotarod test; assay type: toxicity, organism-based; conditions: in vivo
Mus musculus [14] = assay: Anticonvulsant activity against scMet-induced seizures in ip dosed mouse; assay type: functional
Mus musculus [15] = organism: Mus musculus; assay: Protective index, ratio of TD50 for mouse by rotarod test to ED50 for mouse by scMET test; assay type: functional
Mus musculus [16] = assay: Anticonvulsant activity against maximal electroshock-induced seizures in ip dosed mouse; assay type: functional
Mus musculus [17] = organism: Mus musculus; assay: Protective index, ratio of TD50 for mouse by rotarod test to ED50 for mouse by MES test; assay type: functional
Mus musculus [18] = assay: Anticonvulsant activity against maximal electroshock-induced seizures in mouse at 30 mg/kg, ip after 0.5 hrs; assay type: functional, organism-based; set-up: dose 30 mg/kg
Mus musculus [19] = assay: Anticonvulsant activity against maximal electroshock-induced seizures in mouse at 30 mg/kg, ip after 4 hrs; assay type: functional, organism-based; set-up: dose 30 mg/kg
Mus musculus [20] = assay: Anticonvulsant activity against maximal electroshock-induced seizures in mouse at 100 mg/kg, ip after 4 hrs; assay type: functional, organism-based; set-up: dose 100 mg/kg
Mus musculus [21] = assay: Anticonvulsant activity against maximal electroshock-induced seizures in mouse at 300 mg/kg, ip after 0.5 hrs; assay type: functional, organism-based; set-up: dose 300 mg/kg
Mus musculus [22] = assay: Anticonvulsant activity against maximal electroshock-induced seizures in mouse at 300 mg/kg, ip after 4 hrs; assay type: functional, organism-based; set-up: dose 300 mg/kg
Mus musculus [23] = assay: Anticonvulsant activity against scMet-induced seizures in mouse at 100 mg/kg, ip after 4 hrs; assay type: functional, organism-based; set-up: dose 100 mg/kg
Mus musculus [24] = assay: Anticonvulsant activity against scMet-induced seizures in mouse at 30 mg/kg, ip after 0.5 hrs; assay type: functional, organism-based; set-up: dose 30 mg/kg
Mus musculus [25] = assay: Anticonvulsant activity against scMet-induced seizures in mouse at 30 mg/kg, ip after 4 hrs; assay type: functional, organism-based; set-up: dose 30 mg/kg
Mus musculus [26] = assay: Anticonvulsant activity against scMet-induced seizures in mouse at 100 mg/kg, ip after 0.5 hrs; assay type: functional, organism-based; set-up: dose 100 mg/kg
Mus musculus [27] = assay: Anticonvulsant activity against scMet-induced seizures in mouse at 300 mg/kg, ip after 0.5 hrs; assay type: functional, organism-based; set-up: dose 300 mg/kg
Mus musculus [28] = assay: Anticonvulsant activity against scMet-induced seizures in mouse at 300 mg/kg, ip after 4 hrs; assay type: functional, organism-based; set-up: dose 300 mg/kg
Mus musculus [29] = assay: Neurotoxicity in mouse at 10 mg/kg, ip after 0.5 hrs by rotarod test; assay type: toxicity, organism-based; set-up: dose 10 mg/kg, route intraperitoneal; conditions: in vivo
Mus musculus [30] = assay: Neurotoxicity in mouse at 300 mg/kg, ip after 0.5 hrs by rotarod test; assay type: toxicity, organism-based; set-up: dose 300 mg/kg, route intraperitoneal; conditions: in vivo
Mus musculus [31] = assay: Neurotoxicity in mouse at 3 mg/kg, ip after 0.5 hrs by rotarod test; assay type: toxicity, organism-based; set-up: dose 3 mg/kg, route intraperitoneal; conditions: in vivo
Mus musculus [32] = assay: Anticonvulsant activity against maximal electroshock-induced seizures in mouse at 3 mg/kg, ip after 0.5 hrs; assay type: functional, organism-based; set-up: dose 3 mg/kg
Mus musculus [33] = assay: Anticonvulsant activity against maximal electroshock-induced seizures in mouse at 10 mg/kg, ip after 0.5 hrs; assay type: functional, organism-based; set-up: dose 10 mg/kg
Mus musculus [34] = assay: Anticonvulsant activity against maximal electroshock-induced seizures in mouse at 100 mg/kg, ip after 0.5 hrs; assay type: functional, organism-based; set-up: dose 100 mg/kg

| SMILES | Neurotoxicity (Mus musculus [2]) | Neurotoxicity (Mus musculus [4]) | Neurotoxicity (Rattus norvegicus [8]) | Neurotoxicity (Rattus norvegicus [9]) | Neurotoxicity (Rattus norvegicus [10]) | Neurotoxicity (Rattus norvegicus [11]) | Neurotoxicity (Rattus norvegicus [12]) | TD50 [13] | ED50 (Mus musculus [14]) | Activity (Mus musculus [18]) | Activity (Mus musculus [19]) | Activity (Mus musculus [20]) | Activity (Mus musculus [21]) | Activity (Mus musculus [22]) | Activity (Mus musculus [23]) | Activity (Mus musculus [24]) | Activity (Mus musculus [25]) | Activity (Mus musculus [26]) | Activity (Mus musculus [27]) | Activity (Mus musculus [28]) | other results |
| --- | --- | --- | --- | --- | --- | --- | --- | --- | --- | --- | --- | --- | --- | --- | --- | --- | --- | --- | --- | --- | --- |
| C[C@H](CO)NCc1ccc2oc3cc(Cl)ccc3c(=O)c2c1 | Not Active | Not Active | Not Active | Not Active | Not Active | Not Active | Not Active | 483 mg/kg | > 500 mg/kg | inactive | inactive | inactive | Active | Active | inactive | inactive | inactive | inactive | inactive | inactive | Neurotoxicity (Mus musculus [1]): Not Active; Neurotoxicity (Mus musculus [3]): Not Active; Activity (Rattus norvegicus [5]): inactive; Activity (Rattus norvegicus [6]): inactive; Activity (Rattus norvegicus [7]): inactive; PI (Mus musculus [15]): <0.96; ED50 (Mus musculus [16]): 77.4 mg/kg; PI (Mus musculus [17]): 6.23 |
| CCC(O)CNCc1ccc2oc3cc(Cl)ccc3c(=O)c2c1 (racemic) | Not Active | Neurotoxic | Not Active | Not Active | Not Active | Not Active | Not Active |  |  | Active | inactive | Active | Active | Active | inactive | inactive | inactive | inactive | inactive | inactive | Neurotoxicity (Mus musculus [29]): Not Active; Neurotoxicity (Mus musculus [30]): Neurotoxic; Neurotoxicity (Mus musculus [31]): Not Active; Activity (Mus musculus [32]): inactive; Activity (Mus musculus [33]): inactive; Activity (Mus musculus [34]): Active |
| CCCC(CCC)C(=O)[O-].[Na+] [VALPROATE SODIUM] |  |  |  |  |  |  |  | 483 mg/kg | 290 mg/kg |  |  |  |  |  |  |  |  |  |  |  |  |
